Columns and labels:
HDAC3 = target: T1, HDAC3 (Homo sapiens, UniProt O15379); experiment: In vitro HDAC enzyme inhibition assay, HDAC3; assay type: biochemical; conditions: for HDAC3/HDAC6 in vitro selectivity: ratio of IC50 for HDAC3 relative to that of HDAC6; for IC50: recombinant full-length HDAC3, substrate MAZ1600 9 μM
T1 construct: Recombinant, full-length HDAC protein (BPS Biosciences) was incubated with fluorophore conjugated substrate; purchased BPS Biosciences
Method: (§1) In vitro Histone Deacetylase enzyme assays were performed using Class I (isoforms: HDAC1, HDAC2, HDAC3 and HDAC8), class IIa (isoforms: HDAC4, HDAC5, HDAC7 and HDAC9) and class IIb (isoform HDAC6).
(§2) HDAC activities were determined in vitro with an optimized homogenous assay performed in a 384-well plate. Recombinant, full-length HDAC protein (BPS Biosciences) was incubated with fluorophore conjugated substrate, MAZ1600 and MAZ1675, at Km=[S]. […] Reactions were performed in assay buffer (50 mM HEPES, 100 mM KCl, 0.001% Tween-20, 0.05% BSA, 200 μM tris(2-carboxyethyl)phosphine (TCEP), pH 7.4) and followed for fluorogenic release of 7-amino-4-methylcoumarin from substrate upon deacetylase and trypsin enzymatic activity. Fluorescence measurements were obtained every five minutes using a multilabel plate reader and plate-stacker (Envision; Perkin-Elmer). Each plate was analyzed by plate repeat, and the first derivative within the linear range was imported into analytical software (Spotfire DecisionSite and GraphPad Prism). Replicate experimental data from incubations with inhibitor were normalized to controls.

HDAC1 = target: T2, HDAC1 (Homo sapiens, UniProt Q13547); experiment: In vitro HDAC enzyme inhibition assay, HDAC1; assay type: biochemical; conditions: for HDAC1/HDAC6 in vitro selectivity: ratio of IC50 for HDAC1 relative to that of HDAC6; for IC50: recombinant full-length HDAC1, substrate MAZ1600 21 μM
T2 construct: Recombinant, full-length HDAC protein (BPS Biosciences) was incubated with fluorophore conjugated substrate; purchased BPS Biosciences
Method: as §1, §2

HDAC9 = target: T3, HDAC9 (Homo sapiens, UniProt Q9UKV0); experiment: In vitro HDAC enzyme inhibition assay, HDAC9; assay type: biochemical; conditions: for HDAC9/HDAC6 in vitro selectivity: ratio of IC50 for HDAC9 relative to that of HDAC6; for IC50: recombinant full-length HDAC9, substrate MAZ1675 26 μM; for selectivity toward HDAC6 compared to HDAC9 (in words): tested in vitro
T3 construct: Recombinant, full-length HDAC protein (BPS Biosciences) was incubated with fluorophore conjugated substrate; purchased BPS Biosciences
Method: as §1, §2

acetylated tubulin = experiment: High-content image analysis of induction of acetylated tubulin in A549 cells; conditions: for EC50: Homo sapiens, A549, 8 h, read-out: EC50 for half-maximal induction of acetylated tubulin (AcTubulin); for AcHistone/AcTubulin in cell selectivity toward HDAC6: ratio of EC50 acetylated histone to EC50 acetylated tubulin
HDAC8 = target: T4, HDAC8 (Homo sapiens, UniProt Q9BY41); experiment: In vitro HDAC enzyme inhibition assay, HDAC8; assay type: biochemical; conditions: for HDAC8/HDAC6 in vitro selectivity: ratio of IC50 for HDAC8 relative to that of HDAC6; for IC50: recombinant full-length HDAC8, substrate MAZ1675 282 μM; for selectivity toward HDAC6 compared to HDAC8 (in words): tested in vitro
T4 construct: Recombinant, full-length HDAC protein (BPS Biosciences) was incubated with fluorophore conjugated substrate; purchased BPS Biosciences
T4 sequence (Q9BY41 1-377): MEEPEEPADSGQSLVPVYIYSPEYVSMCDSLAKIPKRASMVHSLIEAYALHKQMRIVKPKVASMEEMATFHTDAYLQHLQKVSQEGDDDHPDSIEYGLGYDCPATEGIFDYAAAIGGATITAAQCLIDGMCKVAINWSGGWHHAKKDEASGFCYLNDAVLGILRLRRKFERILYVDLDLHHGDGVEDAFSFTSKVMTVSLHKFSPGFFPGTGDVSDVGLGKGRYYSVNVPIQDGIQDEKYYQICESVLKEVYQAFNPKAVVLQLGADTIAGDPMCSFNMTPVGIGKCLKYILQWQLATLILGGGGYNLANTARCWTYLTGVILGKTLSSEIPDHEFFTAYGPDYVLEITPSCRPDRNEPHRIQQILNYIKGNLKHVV
Method: as §1, §2

HDAC5 = target: T5, HDAC5 (Homo sapiens, UniProt Q9UQL6); experiment: In vitro HDAC enzyme inhibition assay, HDAC5; assay type: biochemical; conditions: for HDAC5/HDAC6 in vitro selectivity: ratio of IC50 for HDAC5 relative to that of HDAC6; for IC50: recombinant full-length HDAC5, substrate MAZ1675 40 μM; for selectivity toward HDAC6 compared to HDAC5 (in words): tested in vitro
T5 construct: Recombinant, full-length HDAC protein (BPS Biosciences) was incubated with fluorophore conjugated substrate; purchased BPS Biosciences
Method: as §1, §2

T2 sequence (Q13547 whole entry): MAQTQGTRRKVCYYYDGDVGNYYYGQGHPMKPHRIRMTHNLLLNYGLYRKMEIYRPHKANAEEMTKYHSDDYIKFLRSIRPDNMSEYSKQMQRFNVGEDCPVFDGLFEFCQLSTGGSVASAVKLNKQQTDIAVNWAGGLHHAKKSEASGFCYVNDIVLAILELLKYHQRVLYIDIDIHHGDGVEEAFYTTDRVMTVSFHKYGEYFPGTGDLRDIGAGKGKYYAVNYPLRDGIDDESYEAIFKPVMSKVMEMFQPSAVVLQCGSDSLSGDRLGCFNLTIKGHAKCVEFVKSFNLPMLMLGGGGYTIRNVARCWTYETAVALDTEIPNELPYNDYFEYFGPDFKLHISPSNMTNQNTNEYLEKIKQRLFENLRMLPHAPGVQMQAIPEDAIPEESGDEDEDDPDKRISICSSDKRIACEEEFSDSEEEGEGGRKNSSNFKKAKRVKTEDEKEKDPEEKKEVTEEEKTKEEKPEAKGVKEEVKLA
T3 sequence (Q9UKV0 whole entry): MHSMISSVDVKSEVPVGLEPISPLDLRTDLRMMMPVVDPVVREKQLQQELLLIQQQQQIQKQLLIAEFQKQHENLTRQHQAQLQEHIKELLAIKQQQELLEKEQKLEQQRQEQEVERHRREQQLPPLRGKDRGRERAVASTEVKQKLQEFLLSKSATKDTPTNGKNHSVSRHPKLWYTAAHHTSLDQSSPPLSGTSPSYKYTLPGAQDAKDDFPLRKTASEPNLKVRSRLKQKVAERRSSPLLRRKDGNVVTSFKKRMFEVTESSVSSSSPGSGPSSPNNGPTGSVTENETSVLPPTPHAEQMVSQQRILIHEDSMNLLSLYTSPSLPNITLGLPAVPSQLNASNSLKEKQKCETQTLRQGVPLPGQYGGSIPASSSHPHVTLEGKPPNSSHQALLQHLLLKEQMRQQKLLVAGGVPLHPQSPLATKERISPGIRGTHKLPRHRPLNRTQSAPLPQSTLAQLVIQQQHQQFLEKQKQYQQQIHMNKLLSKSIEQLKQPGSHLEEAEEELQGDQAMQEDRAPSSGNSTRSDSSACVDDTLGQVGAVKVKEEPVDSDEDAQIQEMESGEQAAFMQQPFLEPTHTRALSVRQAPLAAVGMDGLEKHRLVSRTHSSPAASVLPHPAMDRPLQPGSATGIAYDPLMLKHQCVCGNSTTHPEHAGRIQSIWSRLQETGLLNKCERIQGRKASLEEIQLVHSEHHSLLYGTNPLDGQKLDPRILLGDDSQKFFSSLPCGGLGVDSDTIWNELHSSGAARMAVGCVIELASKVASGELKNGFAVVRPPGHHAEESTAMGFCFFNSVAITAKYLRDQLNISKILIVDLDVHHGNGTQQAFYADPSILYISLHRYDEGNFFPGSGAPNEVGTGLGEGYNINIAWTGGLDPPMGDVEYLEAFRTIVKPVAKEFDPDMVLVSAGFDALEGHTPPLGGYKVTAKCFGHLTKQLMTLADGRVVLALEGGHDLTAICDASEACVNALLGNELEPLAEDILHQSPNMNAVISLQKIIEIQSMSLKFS
T1 sequence (O15379 whole entry): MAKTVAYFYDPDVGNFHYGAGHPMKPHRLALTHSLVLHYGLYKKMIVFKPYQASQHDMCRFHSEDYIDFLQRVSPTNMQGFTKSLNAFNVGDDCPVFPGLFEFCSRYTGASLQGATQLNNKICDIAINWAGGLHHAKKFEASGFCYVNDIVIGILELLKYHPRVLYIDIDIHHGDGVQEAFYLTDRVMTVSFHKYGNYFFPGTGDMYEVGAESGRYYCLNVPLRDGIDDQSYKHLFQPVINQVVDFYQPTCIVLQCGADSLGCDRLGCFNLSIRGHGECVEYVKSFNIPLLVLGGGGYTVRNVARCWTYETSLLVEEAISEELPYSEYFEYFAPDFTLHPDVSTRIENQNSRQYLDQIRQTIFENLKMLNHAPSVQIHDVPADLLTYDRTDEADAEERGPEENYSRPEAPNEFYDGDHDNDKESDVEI
T1 sequence (Q9Y618 395-489 partner limits assumed): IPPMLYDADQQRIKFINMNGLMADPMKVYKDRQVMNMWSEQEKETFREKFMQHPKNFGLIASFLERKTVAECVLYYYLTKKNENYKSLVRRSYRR
T5 sequence (Q9UQL6 whole entry): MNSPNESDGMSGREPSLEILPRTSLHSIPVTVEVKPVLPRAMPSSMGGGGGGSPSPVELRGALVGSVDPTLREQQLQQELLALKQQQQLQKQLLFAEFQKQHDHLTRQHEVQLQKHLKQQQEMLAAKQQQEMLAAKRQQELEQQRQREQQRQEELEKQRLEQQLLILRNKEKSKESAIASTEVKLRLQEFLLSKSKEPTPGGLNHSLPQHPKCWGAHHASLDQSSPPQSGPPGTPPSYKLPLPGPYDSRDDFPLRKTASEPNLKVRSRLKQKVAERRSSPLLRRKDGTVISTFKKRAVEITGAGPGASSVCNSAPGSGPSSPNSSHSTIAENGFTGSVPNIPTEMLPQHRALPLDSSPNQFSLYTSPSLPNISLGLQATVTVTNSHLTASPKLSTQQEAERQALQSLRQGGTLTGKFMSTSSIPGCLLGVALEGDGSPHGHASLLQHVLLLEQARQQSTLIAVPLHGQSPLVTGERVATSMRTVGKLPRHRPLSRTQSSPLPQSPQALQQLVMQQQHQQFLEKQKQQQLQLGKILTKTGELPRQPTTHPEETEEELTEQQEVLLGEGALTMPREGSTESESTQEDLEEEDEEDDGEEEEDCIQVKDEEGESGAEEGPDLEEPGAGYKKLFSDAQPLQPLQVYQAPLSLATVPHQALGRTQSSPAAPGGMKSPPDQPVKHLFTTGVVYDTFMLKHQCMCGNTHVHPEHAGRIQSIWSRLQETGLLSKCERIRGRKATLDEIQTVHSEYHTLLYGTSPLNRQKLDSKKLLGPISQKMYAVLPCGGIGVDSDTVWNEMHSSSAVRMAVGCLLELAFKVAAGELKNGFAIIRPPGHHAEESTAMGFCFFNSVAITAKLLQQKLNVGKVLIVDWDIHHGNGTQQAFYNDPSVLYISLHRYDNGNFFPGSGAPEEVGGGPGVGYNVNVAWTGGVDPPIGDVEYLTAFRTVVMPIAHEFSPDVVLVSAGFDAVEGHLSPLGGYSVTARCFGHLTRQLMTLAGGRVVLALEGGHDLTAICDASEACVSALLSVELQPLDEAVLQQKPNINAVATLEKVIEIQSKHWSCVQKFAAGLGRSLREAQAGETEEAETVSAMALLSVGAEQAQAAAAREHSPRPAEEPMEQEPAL

SMILES	HDAC3/HDAC6 in vitro selectivity (HDAC3)	IC50 (HDAC3)	HDAC1/HDAC6 in vitro selectivity (HDAC1)	IC50 (HDAC1)	HDAC9/HDAC6 in vitro selectivity (HDAC9)	IC50 (HDAC9)	EC50 (acetylated tubulin)	HDAC8/HDAC6 in vitro selectivity (HDAC8)	IC50 (HDAC8)	HDAC5/HDAC6 in vitro selectivity (HDAC5)	IC50 (HDAC5)	selectivity toward HDAC6 compared to HDAC9 (in words) (HDAC9)	AcHistone/AcTubulin in cell selectivity toward HDAC6 (acetylated tubulin; A549 cells)	selectivity toward HDAC6 compared to HDAC8 (in words) (HDAC8)	selectivity toward HDAC6 compared to HDAC5 (in words) (HDAC5)	levels of acetylated tubulin, dose response (in words) (acetylated tubulin; A549 cells, FIG. 11)
O=C(NO)c1ccc(Cn2c(=O)[nH]c3ccccc32)cc1 [B1, N-hydroxy-4-((2-oxo-2,3-dihydro-1H-benzo[d]imidazol-1-yl)methyl)benzamide]	14575	212 nM	9665	140 nM	155186	2250 nM	89.4 nM	46328	673 nM	117927	1710 nM	exceptionally high selectivity (Inhibitors with in vitro selectivity values for HDAC6 of at least 30,000 are considered to have exceptionally high selectivity toward HDAC6)	2.941	exceptionally high selectivity (Inhibitors with in vitro selectivity values for HDAC6 of at least 30,000 are considered to have exceptionally high selectivity toward HDAC6)	exceptionally high selectivity (Inhibitors with in vitro selectivity values for HDAC6 of at least 30,000 are considered to have exceptionally high selectivity toward HDAC6)	–
O=C(NO)c1ccc(Cn2c(=O)[nH]c3cc(C(F)(F)F)ccc32)cc1 [B6, N-hydroxy-4-((2-oxo-5-(trifluoromethyl)-2,3-dihydro-1H-benzo[d]imidazol-1-yl)methyl)benzamide]	2366	14.7 nM	1951	12.1 nM	114680	712 nM	48.5 nM	48637	302 nM	122813	762 nM	exceptionally high selectivity (Inhibitors with in vitro selectivity values for HDAC6 of at least 30,000 are considered to have exceptionally high selectivity toward HDAC6)	12.98	–	exceptionally high selectivity (Inhibitors with in vitro selectivity values for HDAC6 of at least 30,000 are considered to have exceptionally high selectivity toward HDAC6)	dose-dependent increase
COc1ccc2c(c1)[nH]c(=O)n2Cc1ccc(C(=O)NO)cc1 [B7, N-hydroxy-4-((5-methoxy-2-oxo-2,3-dihydro-1H-benzo[d]imidazol-1-yl)methyl)benzamide]	1236	31.8 nM	1224	31.5 nM	47920	1230 nM	154 nM	21403	551 nM	57925	1490 nM	exceptionally high selectivity (Inhibitors with in vitro selectivity values for HDAC6 of at least 30,000 are considered to have exceptionally high selectivity toward HDAC6)	10.013	–	exceptionally high selectivity (Inhibitors with in vitro selectivity values for HDAC6 of at least 30,000 are considered to have exceptionally high selectivity toward HDAC6)	–
O=C(NO)c1ccc(Cn2nnc3ccccc32)cc1 [C1, 4-((1H-benzo[d][1,2,3]triazol-1-yl)methyl)-N-hydroxybenzamide]	10277	164 nM	3996	63.9 nM	67800	1080 nM	2700 nM	19098	305 nM	59773	956 nM	exceptionally high selectivity (Inhibitors with in vitro selectivity values for HDAC6 of at least 30,000 are considered to have exceptionally high selectivity toward HDAC6)	2.641	–	exceptionally high selectivity (Inhibitors with in vitro selectivity values for HDAC6 of at least 30,000 are considered to have exceptionally high selectivity toward HDAC6)	–

Further lines, with some results ahead:

HDAC3/HDAC6 in vitro selectivity (HDAC3)	IC50 (HDAC3)	HDAC1/HDAC6 in vitro selectivity (HDAC1)	IC50 (HDAC1)	HDAC9/HDAC6 in vitro selectivity (HDAC9)	IC50 (HDAC9)	EC50 (acetylated tubulin)	HDAC8/HDAC6 in vitro selectivity (HDAC8)	IC50 (HDAC8)	HDAC5/HDAC6 in vitro selectivity (HDAC5)	IC50 (HDAC5)	SMILES	selectivity toward HDAC6 compared to HDAC9 (in words) (HDAC9)	AcHistone/AcTubulin in cell selectivity toward HDAC6 (acetylated tubulin; A549 cells)	selectivity toward HDAC6 compared to HDAC8 (in words) (HDAC8)	selectivity toward HDAC6 compared to HDAC5 (in words) (HDAC5)	levels of acetylated tubulin, dose response (in words) (acetylated tubulin; A549 cells, FIG. 11)
6310	18.1 nM	4622	13.2 nM	319552	915 nM	95.3 nM	120780	346 nM	229909	658 nM	Cc1ccc2c(c1)[nH]c(=O)n2Cc1ccc(C(=O)NO)cc1 [B2, N-hydroxy-4-((5-methyl-2-oxo-2,3-dihydro-1H-benzo[d]imidazol-1-yl)methyl)benzamide]	exceptionally high selectivity (Inhibitors with in vitro selectivity values for HDAC6 of at least 30,000 are considered to have exceptionally high selectivity toward HDAC6)	2.402	exceptionally high selectivity (Inhibitors with in vitro selectivity values for HDAC6 of at least 30,000 are considered to have exceptionally high selectivity toward HDAC6)	exceptionally high selectivity (Inhibitors with in vitro selectivity values for HDAC6 of at least 30,000 are considered to have exceptionally high selectivity toward HDAC6)	–
6307	136 nM	2749	59.3 nM	66950	1440 nM	70.2 nM	12899	278 nM	51438	1110 nM	O=C(NO)c1ccc(Cn2c(=O)[nH]c3cc(F)ccc32)cc1 [B3, 4-((5-fluoro-2-oxo-2,3-dihydro-1H-benzo[d]imidazol-1-yl)methyl)N-hydroxybenzamide]	exceptionally high selectivity (Inhibitors with in vitro selectivity values for HDAC6 of at least 30,000 are considered to have exceptionally high selectivity toward HDAC6)	21.1	–	exceptionally high selectivity (Inhibitors with in vitro selectivity values for HDAC6 of at least 30,000 are considered to have exceptionally high selectivity toward HDAC6)	–
353	8.92 nM	209	5.29 nM	16475	416 nM	80.5 nM	6673	169 nM	22793	576 nM	O=C(NO)c1ccc(Cn2c(=O)[nH]c3cc(Cl)ccc32)cc1 [B4, 4-((5-chloro-2-oxo-2,3-dihydro-1H-benzo[d]imidazol-1-yl)methyl)-N-hydroxybenzamide]	–	5.217	–	–	–
495	10.1 nM	508	10.4 nM	39480	809 nM	132 nM	12655	259 nM	39409	808 nM	O=C(NO)c1ccc(Cn2c(=O)[nH]c3cc(Br)ccc32)cc1 [B5, 4-((5-bromo-2-oxo-2,3-dihydro-1H-benzo[d]imidazol-1-yl)methyl)-N-hydroxybenzamide]	exceptionally high selectivity (Inhibitors with in vitro selectivity values for HDAC6 of at least 30,000 are considered to have exceptionally high selectivity toward HDAC6)	6.398	–	exceptionally high selectivity (Inhibitors with in vitro selectivity values for HDAC6 of at least 30,000 are considered to have exceptionally high selectivity toward HDAC6)	–

Source: US20150197497A1, “SELECTIVE INHIBITORS OF HISTONE DEACETYLASE ISOFORM 6 AND METHODS THEREOF” (DANA-FARBER CANCER INSTITUTE, INC., priority 2011, published 2015)
